Experimental findings from patent US5140018A, “1,3,2-benzodithiazole-1-oxide compounds” (Abbott Laboratories, priority 1991, dated 1992) are described below.

Holding throughout (type): cell-based
Assay [1] deals with Torulopsis glabrata ATCC 15545. Description: In vitro antifungal MIC, Torulopsis glabrata ATCC 15545. The settings on record: Nakaseomyces glabratus, ATCC15545; Torulopsis glabrata ATCC 15545; 35°-37° C., 48 hours; read-out: MIC. As to the method:
(§1) The in vitro antifungal activity of the compounds of the present invention against a variety of fungiwas determined as follow: Test medium was prepared by dissolving first 5 g of dextrose and then 6.7 g of Bacto Yeast Nitrogen Base® (commercially available from Difco Laboratories) in 100 mL of distilled water. The solution was filter-sterilized and diluted 1:10 with 0.01M pH 8.0 phosphate buffer solution, and the final pH of the medium adjusted to about pH 7.0 when necessary with either 0.1N hydrochloric acid solution of 0.1N sodium hydroxide solution. […] These concentrated stock solutions were diluted to a concentration of 200 μg/mL (twice the highest concentration desired for testing) with the test medium. Amphotericin B, similarly prepared, was used as a reference antifungal agent.
(§2) The test organisms were then inoculated into test tubes containing approximately 3 to 10 mL of test medium and the test tubes incubated overnight at 37° C. A sample of each overnight culture was placed in a test tube and diluted using the test medium until a reading of 95% transmittance was obtained in a conventional UV/visible spectrophotometer set to 560 nm. The adjusted cultures were then diluted 1:50 with test medium. These diluted cultures served as the inocula for the assays which follow and were used within 15 minutes of preparation.
(§3) Next, 2-fold serial dilutions of each test compound in test medium were prepared in a 96-well microtiter plate using calibrated microdiluters attached to an automatic (hand-held) diluter (available from Dynatech Laboratories).
(§4) Using sterile calibrated droppers or a multi-point dispenser, the diluted inoculum suspension was added to each of the wells in the plate. When inoculation was complete, the microtiter tray was covered with a plastic plate sealer to minimize evaporation. After the plate had been sealed, a hole was made above each well with a sterile 26-gauge syringe needle in order to allow gas exchange. If plate sealers were not available, the microtiter trays were stacked in groups of five or less with an empty tray on top. The microtiter trays were then incubated in a humidified chamber at 35°-37° C. for 48 hours or until growth was visible in the growth control wells.
(§5) The minimum inhibitory concentration (MIC) was defined as the lowest concentration of test compound yielding no growth, a slight haze or sparsely isolated colonies on the inoculum spot as compared to the growth control containing no test compound.

For assay [2], the system named is Candida albicans ATCC 62376. Briefly: In vitro antifungal MIC, Candida albicans ATCC 62376. The note with it: ATCC62376; Candida albicans ATCC 62376; 35°-37° C., 48 hours; read-out: MIC. As to the method: as §1, §2, §3, §4, §5
Assay [3] relates to Candida tropicalis NRRL-Y-112. Briefly: In vitro antifungal MIC, Candida tropicalis NRRL-Y-112. The note with it: NRRLY112; Candida tropicalis NRRL-Y-112; 35°-37° C., 48 hours; read-out: MIC. As to the method: as §1, §2, §3, §4, §5
Assay [4] relates to Aspergillus niger ATCC 16404. Description: In vitro antifungal MIC, Aspergillus niger ATCC 16404. The settings on record: ATCC16404; Aspergillus niger ATCC 16404; 35°-37° C., 48 hours; read-out: MIC. As to the method: as §1, §2, §3, §4, §5
For another assay, the system named is Candida kefyr ATCC 28838. Description: In vitro antifungal MIC, Candida kefyr ATCC 28838. The note with it: Kluyveromyces marxianus, ATCC28838; Candida kefyr ATCC 28838; 35°-37° C., 48 hours; read-out: MIC. The method, then:
as §1, §2, §3, §4, §5

In the next assay the test system is Candida albicans CCH 442. Description: In vitro antifungal MIC, Candida albicans CCH 442. The settings on record: CCH442; Candida albicans CCH 442; 35°-37° C., 48 hours; read-out: MIC. As to the method: as §1, §2, §3, §4, §5
The test system of assay [5] is Candida albicans ATCC 38247. Description: In vitro antifungal MIC, Candida albicans ATCC 38247. The note with it: ATCC38247; Candida albicans ATCC 38247; 35°-37° C., 48 hours; read-out: MIC. As to the method: as §1, §2, §3, §4, §5
Assay [6] has as its system Candida albicans ATCC 10231. Description: In vitro antifungal MIC, Candida albicans ATCC 10231. The note with it: ATCC10231; Candida albicans ATCC 10231; 35°-37° C., 48 hours; read-out: MIC. As to the method:
as §1, §2, §3, §4, §5

A further assay concerns Candida albicans 579A. Description: In vitro antifungal MIC, Candida albicans 579A. The note with it: Candida albicans 579A; 35°-37° C., 48 hours; read-out: MIC. The method, then: as §1, §2, §3, §4, §5
For assay [7], the system named is Cryptococcus albidus ATCC 34140. Briefly: In vitro antifungal MIC, Cryptococcus albidus ATCC 34140. The settings on record: Naganishia albida, ATCC34140; Cryptococcus albidus ATCC 34140; 35°-37° C., 48 hours; read-out: MIC. The method, then:
as §1, §2, §3, §4, §5

SMILES strings stand for the structures. Converted amounts (≈) assume the structure as drawn.

For `CC(C)(C)N1Sc2ccccc2[S+]1[O-]` (centres unmarked) [Example 14, 2-t-butyl-1,3,2-benzodithiazole-1-oxide], the MIC (as a rule, the lowest concentration found to suppress growth) amounted to 1.56 µg/mL (≈ 6.86 µM) in [1]; 0.78 µg/mL (≈ 3.43 µM) in assay [2]; 3.12 µg/mL (≈ 13.7 µM) in assay [3]; 0.78 µg/mL (≈ 3.43 µM) in [4]; 0.2 µg/mL (≈ 0.88 µM) with Candida kefyr ATCC 28838; 1.56 µg/mL (≈ 6.86 µM) with Candida albicans CCH 442. The MIC in assay [5] is 6.25 µg/mL (≈ 27.5 µM); in assay [6], 1.56 µg/mL (≈ 6.86 µM); in the assay with Candida albicans 579A, 1.56 µg/mL (≈ 6.86 µM); in assay [7] it was 3.12 µg/mL (≈ 13.7 µM).

`CCCCCCCCCCN1Sc2ccccc2[S+]1[O-]` (centres unmarked) [Example 8, 2-n-decyl-1,3,2-benzodithiazole-1-oxide]: the minimal inhibitory concentration (MIC) is 3.12 µg/mL (≈ 10 µM) in assay [1]; 6.25 µg/mL (≈ 20.1 µM) in [2]; 3.12 µg/mL (≈ 10 µM) in assay [3]; 1.56 µg/mL (≈ 5.01 µM) in [4]; 1.56 µg/mL (≈ 5.01 µM) in the assay on Candida kefyr ATCC 28838; 6.25 µg/mL (≈ 20.1 µM) in the assay with Candida albicans CCH 442. The MIC worked out at 6.25 µg/mL (≈ 20.1 µM) in assay [5], 1.56 µg/mL (≈ 5.01 µM) in [6], 6.25 µg/mL (≈ 20.1 µM) with Candida albicans 579A and 12.5 µg/mL (≈ 40.1 µM) in assay [7].

Take `[O-][S+]1c2ccccc2SN1Cc1ccc(Cl)cc1Cl` (centres unmarked) [Example 36, 2-(2,4-dichlorophenyl)methyl-1,3,2-benzodithiazole-1-oxide]: the MIC in assay [1] came to 3.12 µg/mL (≈ 9.45 µM); in [2], 3.12 µg/mL (≈ 9.45 µM); in [3], 3.12 µg/mL (≈ 9.45 µM); in assay [4], 3.12 µg/mL (≈ 9.45 µM); in the assay on Candida kefyr ATCC 28838 it was 0.78 µg/mL (≈ 2.36 µM); with Candida albicans CCH 442, 6.25 µg/mL (≈ 18.9 µM). The MIC amounted to 12.5 µg/mL (≈ 37.8 µM) in assay [5], 3.12 µg/mL (≈ 9.45 µM) in assay [6], 1.56 µg/mL (≈ 4.72 µM) in the assay on Candida albicans 579A and 25 µg/mL (≈ 75.7 µM) in [7].

`[O-][S+]1c2ccccc2SN1CCc1ccccc1` (centres unmarked) [Example 1, 2-(2-Phenylethyl)-1,3,2-benzodithiazole-1-oxide]: the MIC stood at 1.56 µg/mL (≈ 5.66 µM) in assay [1]; 0.78 µg/mL (≈ 2.83 µM) in [2]; 3.12 µg/mL (≈ 11.3 µM) in assay [3]; 3.12 µg/mL (≈ 11.3 µM) in assay [4]; 0.78 µg/mL (≈ 2.83 µM) in the assay on Candida kefyr ATCC 28838; 1.56 µg/mL (≈ 5.66 µM) with Candida albicans CCH 442. In addition, the MIC was found to be 1.56 µg/mL (≈ 5.66 µM) in assay [5], 0.78 µg/mL (≈ 2.83 µM) in assay [6], 0.39 µg/mL (≈ 1.42 µM) with Candida albicans 579A and 3.12 µg/mL (≈ 11.3 µM) in [7].

`[O-][S+]1c2ccccc2SN1C1C2CC3CC(C2)CC1C3` (centres unmarked) [Example 29, 2-(2-adamantyl)-1,3,2-benzodithiazole-1-oxide]: the MIC in assay [1] came out at 12.5 µg/mL (≈ 40.9 µM); in [2] it was 6.25 µg/mL (≈ 20.5 µM); in [3], 12.5 µg/mL (≈ 40.9 µM); in [4], 3.12 µg/mL (≈ 10.2 µM); in the assay on Candida kefyr ATCC 28838, 3.12 µg/mL (≈ 10.2 µM); in the assay with Candida albicans CCH 442, 25 µg/mL (≈ 81.8 µM). Moreover, the MIC in assay [5] turned out to be 50 µg/mL (≈ 164 µM); in assay [6], 6.25 µg/mL (≈ 20.5 µM); in the assay on Candida albicans 579A, 12.5 µg/mL (≈ 40.9 µM); in [7], 25 µg/mL (≈ 81.8 µM).

Consider `C#CCN1Sc2ccccc2[S+]1[O-]` (centres unmarked) [Example 12, 2-propargyl-1,3,2-benzodithiazole-1-oxide], for which the MIC worked out at 0.39 µg/mL (≈ 1.86 µM) in assay [1]; 0.39 µg/mL (≈ 1.86 µM) in [2]; 1.56 µg/mL (≈ 7.45 µM) in assay [3]; 1.56 µg/mL (≈ 7.45 µM) in assay [4]; 0.78 µg/mL (≈ 3.73 µM) in the assay on Candida kefyr ATCC 28838; 0.78 µg/mL (≈ 3.73 µM) in the assay on Candida albicans CCH 442. For the same molecule, the MIC in assay [6] is 0.39 µg/mL (≈ 1.86 µM); in the assay with Candida albicans 579A, 0.78 µg/mL (≈ 3.73 µM); in [7], 1.56 µg/mL (≈ 7.45 µM).
